“Also recorded” adds a separate entry of the source.
What was measured:
[1] = system: morphine-induced analgesia; assay: In vivo antagonist activity: reversal of morphine-induced analgesia, rat paw withdrawal latency test; conditions: for paw withdrawal latency after i.v. injection / reversal of behavioral arrest and other opioid effects / duration of reversal: 5 mg/kg i.v.; for paw withdrawal latency after i.v. injection: tested within 5-10 min; for paw withdrawal latency after i.v. injection / duration of reversal: morphine-treated rats; for reversal of behavioral arrest and other opioid effects: morphine sulphate 10 mg/kg s.c.; for prodrug behaviour: acetate esters vs 1 and 2; for blood brain barrier penetration: i.v., inferred from reversal of morphine effects in rats; for antagonist potency in vivo (comparison in words): morphine induced paw withdrawal latency; for reversal of the effects of morphine: rat paw withdrawal latency test
Method: Assessment of the ability of compounds 1, 2 and 10, 12 to cross the blood brain barrier was tested in male Sprague-Dawley rats (300 g) acutely treated with morphine. […] A baseline paw withdrawal to a radiant thermal stimulus was obtained in unrestrained animals as described in Iadarola et al., Brain Res. 1988, 455, 205-212 and Hargreaves, Pain 1988, 32, 77-78. The stimulus was set to give a baseline withdrawal latency of approximately 10 sec. and the cutoff was at 18 sec. After baseline testing, morphine sulphate, 10 mg/kg, was injected subcutaneously in a volume of 0.1 ml of saline/100 g of body weight.
Ioxy (1) and epiloxy (2) were evaluated in rat and guinea pig brain membranes for their opiate receptor selectivity and potency. […] This comparison was not made during development of the ^18 F cyclofoxy compounds.

κ1 receptor = target: T1, κ1 receptor (Cavia porcellus, UniProt P41144); assay: biochemical; assay type: binding, guinea pig; conditions: ratio κ1/μ
T1 construct: from tissue; host or cells: guinea pig brain membranes, pretreated with BIT and FIT

μ and κ2 receptor = assay: Displacement of [^3 H]CycloFOXY, μ and κ2 receptor binding, rat brain lysed-P2 membranes; conditions: [^3 H]CycloFOXY; read-out: Kd of radioligand
Low Affinity δ Receptors = assay: Displacement of [^3 H]DADLE, low affinity δ receptors, rat lysed-P2 membranes; assay type: binding; conditions: [^3 H]DADLE, low affinity δ; δcx site; read-out: Kd of radioligand

T1 sequence (P41144 whole entry): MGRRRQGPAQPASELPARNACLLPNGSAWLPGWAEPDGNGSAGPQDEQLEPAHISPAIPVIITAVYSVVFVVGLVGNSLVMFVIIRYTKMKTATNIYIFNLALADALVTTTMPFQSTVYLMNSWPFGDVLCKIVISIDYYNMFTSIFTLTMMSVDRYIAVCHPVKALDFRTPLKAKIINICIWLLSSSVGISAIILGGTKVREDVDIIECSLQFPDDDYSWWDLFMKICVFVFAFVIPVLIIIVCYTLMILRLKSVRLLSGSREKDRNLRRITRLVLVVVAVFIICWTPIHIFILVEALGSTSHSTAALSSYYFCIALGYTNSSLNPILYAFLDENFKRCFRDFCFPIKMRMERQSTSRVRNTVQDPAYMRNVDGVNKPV

Row | Compound | paw withdrawal latency after i.v. injection [1] | reversal of behavioral arrest and other opioid effects [1] | duration of reversal [1] | prodrug behaviour [1] | blood brain barrier penetration [1] | antagonist potency in vivo (comparison in words) [1] | reversal of the effects of morphine [1] | other results
1 | CC(=O)Oc1ccc2c3c1O[C@H]1[C@H](I)CC[C@@]4(O)[C@@H](C2)N(CC2CC2)CC[C@]314 [Compound 10, 3-Acetoxy-6β-Iodo-14-Hydroxy-17-Cyclopropylmethyl-4,5α-Epoxymorphinan] | returned to near baseline values | reversed in a matter of seconds | at least 40 min | served as prodrug forms of 1 and 2 | getting into the brain; also recorded: penetrated the blood brain barrier more effectively | more potent effects on morphine induced paw withdrawal latency than their corresponding phenolic counterparts | complete reversal of the effects of morphine | –
2 | CC(=O)Oc1ccc2c3c1O[C@H]1[C@@H](I)CC[C@@]4(O)[C@@H](C2)N(CC2CC2)CC[C@]314 [Compound 12, 3-Acetoxy-6α-Iodo-14-Hydroxy-17-Cyclopropylmethyl-4,5α-Epoxymorphinan] | returned to near baseline values | reversed in a matter of seconds | at least 40 min | served as prodrug forms of 1 and 2 | getting into the brain; also recorded: penetrated the blood brain barrier more effectively | more potent effects on morphine induced paw withdrawal latency than their corresponding phenolic counterparts | complete reversal of the effects of morphine | –
3 | Oc1ccc2c3c1O[C@H]1[C@H](F)CC[C@@]4(O)[C@@H](C2)N(CC2CC2)CC[C@]314 [CycloFOXY, 6β-fluoro-3,14-dihydroxy-17-cyclopropyl methyl-4,5α-epoxymorphinan, reference compound] | – | – | – | – | – | – | – | kappa selectivity κ1/μ (κ1 receptor): 0.89
4 | O=C1CC[C@@]2(O)[C@H]3Cc4ccc(O)c5c4[C@@]2(CCN3CC2CC2)[C@H]1O5 [Naltrexone, reference compound] | returned to near baseline values | reversed in a matter of seconds | – | – | – | – | complete reversal of the effects of morphine | –
5 | Oc1ccc2c3c1O[C@H]1[C@H](F)CC[C@@]4(O)[C@@H](C2)N(CC2CC2)CC[C@]314 [[^3 H]CycloFOXY, reference compound] | – | – | – | – | – | – | – | Kd (μ and κ2 receptor): 0.8 nM
6 | [D-ala^2, D-leu^5 ]enkephalin [[^3 H] DADLE, reference compound] | – | – | – | – | – | – | – | Kd (Low Affinity δ Receptors): 12.2 nM
